Experimental findings from PMC9324412 (Viruses, 2022) are described below.

In one assay the test system is HIV-1 pNL4-3 WT. Nature of the assay: Late-stage single replication cycle antiviral assay, WT virus. Type of assay: cell-based. Particulars: Human immunodeficiency virus 1, TZM-bl, read-out: WT-IC50 (antiviral activity).
Assay [1] relates to HIV-1 pNL4-3 A128T IN mutant. As to the kind of experiment: Late-stage single replication cycle antiviral assay, A128T IN mutant virus. Type of assay: cell-based. Particulars: Human immunodeficiency virus 1, TZM-bl, read-out: A128T-IC50 (antiviral activity).

Take `Cc1nc2c(Br)cccc2c(-c2ccc3c(c2)OCCO3)c1C(OC(C)(C)C)C(=O)O` (stereo not drawn) [Compound 16ba]: the half-maximal inhibitory concentration (IC50) – broadly, the concentration needed to halve the response being measured – in the assay on HIV-1 pNL4-3 WT turned out to be 600 ± 100 nM; in assay [1] it was 300 ± 100 nM.
For `Cc1nc2ccccc2c(-c2ccc3c(c2)OCCO3)c1C(OC(C)(C)C)C(=O)O` (stereo not drawn) [Compound 2], the IC50 in the assay on HIV-1 pNL4-3 WT was 700 ± 100 nM; in assay [1], 1100 ± 200 nM.
In the same order, the values of `Cc1nc2ccc(Br)cc2c(-c2ccc3c(c2)OCCO3)c1C(OC(C)(C)C)C(=O)O` (stereo not drawn) [Compound 17] are 300 ± 100 nM and 10200 ± 2500 nM.
